Biological target: T1, F508del CFTR (Homo sapiens, UniProt P13569, DEL508-508)
T1 construct: Primary CF airway epithelial cells were obtained from the UNC Cystic Fibrosis Tissue Procurement and Cell Culture Core; host or cells: primary CF airway epithelial cells
Assay: Equivalent current assay in primary CF airway epithelial cells (Corrector Activity, NAUC normalized to 3 μM VX809)
Assay type: cell-based
Conditions: NAUC as % of positive control (VX-809)
Method in brief: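 Differentiated primary CF airway cells treated basolaterally 24 h at 37° C with compound (0.1% DMSO). Equivalent current recorded after 5 μM benzamil, stimulation with 10 μM forskolin plus 1 μM VX-770 or 3 μM FDL176, and block by 20 μM CFTR-172; vehicle-subtracted AUC normalized to 3 μM VX809; EC50 from sigmoid fit, Hill slope 1.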

T1 sequence (P13569 with tags, fused parts or gaps DEL508-508): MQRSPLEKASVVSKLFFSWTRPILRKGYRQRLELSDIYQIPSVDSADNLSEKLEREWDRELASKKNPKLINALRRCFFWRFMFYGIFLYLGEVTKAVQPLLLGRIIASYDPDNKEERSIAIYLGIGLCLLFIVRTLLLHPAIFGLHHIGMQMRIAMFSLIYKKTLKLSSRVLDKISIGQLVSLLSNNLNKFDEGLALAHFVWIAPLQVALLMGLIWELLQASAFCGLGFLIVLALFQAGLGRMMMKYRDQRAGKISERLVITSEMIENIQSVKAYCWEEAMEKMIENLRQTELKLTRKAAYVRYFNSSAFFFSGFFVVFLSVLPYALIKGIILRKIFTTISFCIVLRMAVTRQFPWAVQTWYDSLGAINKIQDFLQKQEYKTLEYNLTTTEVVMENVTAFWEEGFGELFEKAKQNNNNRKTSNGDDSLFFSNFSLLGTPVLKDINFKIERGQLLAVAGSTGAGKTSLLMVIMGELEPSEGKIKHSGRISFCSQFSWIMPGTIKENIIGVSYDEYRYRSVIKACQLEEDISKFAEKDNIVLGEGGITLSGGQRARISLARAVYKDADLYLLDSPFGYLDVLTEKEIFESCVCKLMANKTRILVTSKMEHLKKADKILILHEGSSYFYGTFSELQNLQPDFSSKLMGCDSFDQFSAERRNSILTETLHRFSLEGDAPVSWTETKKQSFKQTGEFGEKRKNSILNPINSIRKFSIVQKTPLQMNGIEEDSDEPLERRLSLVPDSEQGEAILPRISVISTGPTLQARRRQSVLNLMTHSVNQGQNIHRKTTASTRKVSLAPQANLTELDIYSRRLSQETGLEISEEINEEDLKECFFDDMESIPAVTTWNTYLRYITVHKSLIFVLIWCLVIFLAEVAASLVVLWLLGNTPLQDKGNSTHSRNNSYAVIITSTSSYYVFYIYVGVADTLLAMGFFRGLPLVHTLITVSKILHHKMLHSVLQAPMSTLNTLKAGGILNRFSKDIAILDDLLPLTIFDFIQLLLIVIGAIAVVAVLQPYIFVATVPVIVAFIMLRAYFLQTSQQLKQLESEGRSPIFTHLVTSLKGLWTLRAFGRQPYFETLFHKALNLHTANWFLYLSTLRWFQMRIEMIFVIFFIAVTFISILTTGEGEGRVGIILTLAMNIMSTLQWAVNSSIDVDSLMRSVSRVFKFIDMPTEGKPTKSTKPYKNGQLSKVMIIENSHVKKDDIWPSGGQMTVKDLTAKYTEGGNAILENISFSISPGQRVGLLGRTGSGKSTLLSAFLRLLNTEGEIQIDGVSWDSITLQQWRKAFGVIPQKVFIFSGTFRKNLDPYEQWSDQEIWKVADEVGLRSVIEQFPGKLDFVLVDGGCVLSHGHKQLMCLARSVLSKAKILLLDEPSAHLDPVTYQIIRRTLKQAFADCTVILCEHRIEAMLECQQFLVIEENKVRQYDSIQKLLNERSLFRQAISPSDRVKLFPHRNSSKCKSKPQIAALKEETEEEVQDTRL

| Compound | Corr Activity (NAUC) |
| --- | --- |
| CCN(C(=O)Cn1nc(-c2cc(C#N)cc(OCCO)c2)c2occc2c1=O)c1ccc2c(c1)OC(F)(F)O2 [Example 214] | ++ (NAUC 70-40% of positive control) |
| CN(C(=O)Cn1nc(-c2cc(F)cc(C#N)c2)c2[nH]cnc2c1=O)c1ccc2c(c1)OC(F)(F)O2 [Example 216, 2-(7-(3-cyano-5-fluorophenyl)-4-oxo-1,4-dihydro-5H-imidazo[4,5-d]pyridazin-5-yl)-N-(2,2-difluorobenzo[d][1,3]dioxol-5-yl)-N-methylacetamide] | +++ (NAUC>70% of positive control) |
| Cc1nc2ccc(N(C)C(=O)Cn3nc(-c4cccc(Cl)c4)c4oc(C5CC5)cc4c3=O)cc2o1 [Example 218] | +++ (NAUC>70% of positive control) |
| CN(C(=O)Cn1nc(-c2cccc(C#N)c2)c2oc(C3CC3)cc2c1=O)c1ccc2c(c1)OC(F)(F)O2 [Example 220] | ++ (NAUC 70-40% of positive control) |
| Cc1nc2ccc(N(C)C(=O)Cn3nc(-c4cccc(C#N)c4)c4oc(C5CCC5)cc4c3=O)cc2o1 [Example 232] | ++ (NAUC 70-40% of positive control) |
| CN(C(=O)Cn1nc(-c2cccc(C#N)c2)c2oc(C3CCC3)cc2c1=O)c1ccc2c(c1)OC(F)(F)O2 [Example 233] | ++ (NAUC 70-40% of positive control) |
| CCN(C(=O)Cn1nc(-c2cc(F)cc(C#N)c2)c2[nH]cnc2c1=O)c1ccc2c(c1)OC(F)(F)O2 [Example 242] | +++ (NAUC>70% of positive control) |
| CN(C(=O)Cn1nc(-c2cc(Cl)cc(C#N)c2)c2[nH]cnc2c1=O)c1ccc2c(c1)OC(F)(F)O2 [Example 243] | +++ (NAUC>70% of positive control) |
| CCN(C(=O)Cn1nc(-c2cc(Cl)cc(C#N)c2)c2[nH]cnc2c1=O)c1ccc2c(c1)OC(F)(F)O2 [Example 244] | +++ (NAUC>70% of positive control) |
| CCN(C(=O)Cn1nc(-c2cc(C#N)cc(C(C)(C)C)c2)c2[nH]cnc2c1=O)c1ccc2c(c1)OC(F)(F)O2 [Example 245] | +++ (NAUC>70% of positive control) |
| CCN(C(=O)Cn1nc(-c2cc(C)cc(C#N)c2)c2[nH]cnc2c1=O)c1ccc2c(c1)OC(F)(F)O2 [Example 246] | +++ (NAUC>70% of positive control) |
| Cc1cc(C#N)cc(-c2nn(CC(=O)N(C)c3ccc4c(c3)OC(F)(F)O4)c(=O)c3nc[nH]c23)c1 [Example 247] | +++ (NAUC>70% of positive control) |
| CCN(C(=O)Cn1nc(-c2cc(C)cc(C#N)c2)c2[nH]cnc2c1=O)c1cc2c(cc1C)OC(F)(F)O2 [Example 248] | +++ (NAUC>70% of positive control) |
| Cc1cc(C#N)cc(-c2nn(CC(=O)N(C)c3cc4c(cc3C)OC(F)(F)O4)c(=O)c3nc[nH]c23)c1 [Example 249] | +++ (NAUC>70% of positive control) |
| CCN(C(=O)Cn1nc(-c2cccc(C#N)c2)c2[nH]cnc2c1=O)c1ccc2c(c1F)OC(F)(F)O2 [Example 250] | +++ (NAUC>70% of positive control) |
| CN(C(=O)Cn1nc(-c2cccc(C#N)c2)c2[nH]cnc2c1=O)c1ccc2c(c1F)OC(F)(F)O2 [Example 251] | +++ (NAUC>70% of positive control) |

| Compound | Corr Activity (NAUC) |
| --- | --- |
| CCN(C(=O)Cn1nc(-c2cc(F)cc(CC#N)c2)c2[nH]cnc2c1=O)c1ccc2c(c1)OC(F)(F)O2 [Example 252] | ++ (NAUC 70-40% of positive control) |
| CCN(C(=O)Cn1nc(-c2cc(Cl)cc(Cl)c2)c2[nH]cnc2c1=O)c1ccc2c(c1)OC(F)(F)O2 [Example 254] | +++ (NAUC>70% of positive control) |
| CCN(C(=O)Cn1nc(-c2cc(F)cc(Cl)c2)c2[nH]cnc2c1=O)c1ccc2c(c1)OC(F)(F)O2 [Example 255] | +++ (NAUC>70% of positive control) |
| CCN(C(=O)Cn1nc(-c2cc(Cl)cc(OC)c2)c2[nH]cnc2c1=O)c1ccc2c(c1)OC(F)(F)O2 [Example 257] | +++ (NAUC>70% of positive control) |
| CCN(C(=O)Cn1nc(-c2cc(F)cc(F)c2)c2[nH]cnc2c1=O)c1ccc2c(c1)OC(F)(F)O2 [Example 258] | +++ (NAUC>70% of positive control) |
| CCN(C(=O)Cn1nc(-c2cc(C(F)(F)F)cc(C(F)(F)F)c2)c2[nH]cnc2c1=O)c1ccc2c(c1)OC(F)(F)O2 [Example 260] | + (NAUC<40% of positive control) |
| CCN(C(=O)Cn1nc(-c2cc(F)cc(OC)c2)c2[nH]cnc2c1=O)c1ccc2c(c1)OC(F)(F)O2 [Example 261] | +++ (NAUC>70% of positive control) |
| CCN(C(=O)Cn1nc(-c2cc(C)cc(F)c2)c2[nH]cnc2c1=O)c1ccc2c(c1)OC(F)(F)O2 [Example 262] | +++ (NAUC>70% of positive control) |
| CCN(C(=O)Cn1nc(-c2cc(F)cc(OCC(C)C)c2)c2[nH]cnc2c1=O)c1ccc2c(c1)OC(F)(F)O2 [Example 264] | ++ (NAUC 70-40% of positive control) |
| CCN(C(=O)Cn1nc(-c2cc(OC)cc(C(F)(F)F)c2)c2[nH]cnc2c1=O)c1ccc2c(c1)OC(F)(F)O2 [Example 265] | + (NAUC<40% of positive control) |
| CCN(C(=O)Cn1nc(-c2cc(Cl)cc(C(=O)N(C)C)c2)c2[nH]cnc2c1=O)c1ccc2c(c1)OC(F)(F)O2 [Example 267] | + (NAUC<40% of positive control) |
| CCN(C(=O)Cn1nc(-c2cc(F)cc(C(F)(F)F)c2)c2[nH]cnc2c1=O)c1ccc2c(c1)OC(F)(F)O2 [Example 268] | ++ (NAUC 70-40% of positive control) |
| CCN(C(=O)Cn1nc(-c2cc(C)cc(Cl)c2)c2[nH]cnc2c1=O)c1ccc2c(c1)OC(F)(F)O2 [Example 269] | +++ (NAUC>70% of positive control) |
| CCN(C(=O)Cn1nc(-c2cc(F)cc(OCC(F)(F)F)c2)c2[nH]cnc2c1=O)c1ccc2c(c1)OC(F)(F)O2 [Example 270] | ++ (NAUC 70-40% of positive control) |
| CCN(C(=O)Cn1nc(-c2cc(SC)cc(C(F)(F)F)c2)c2[nH]cnc2c1=O)c1ccc2c(c1)OC(F)(F)O2 [Example 271] | + (NAUC<40% of positive control) |

Now from value to molecule:

| Corr Activity (NAUC) | Compound |
| --- | --- |
| +++ (NAUC>70% of positive control) | CN(C(=O)Cn1nc(-c2cccc(Cl)c2)c2oc(C3CC3)cc2c1=O)c1ccc2c(c1)OC(F)(F)O2 [Example 219] |
| +++ (NAUC>70% of positive control) | CCN(C(=O)Cn1nc(-c2cc(Cl)cc(Cl)c2)c2oc(C3CC3)cc2c1=O)c1ccc2c(c1)OC(F)(F)O2 [Example 221] |
| +++ (NAUC>70% of positive control) | CCN(C(=O)Cn1nc(-c2cc(F)cc(F)c2)c2oc(C3CC3)cc2c1=O)c1ccc2c(c1)OC(F)(F)O2 [Example 222] |
| +++ (NAUC>70% of positive control) | CCN(C(=O)Cn1nc(-c2cc(F)cc(Cl)c2)c2oc(C3CC3)cc2c1=O)c1ccc2c(c1)OC(F)(F)O2 [Example 223] |
| +++ (NAUC>70% of positive control) | CCN(C(=O)Cn1nc(-c2cc(Cl)cc(C#N)c2)c2oc(C3CC3)cc2c1=O)c1ccc2c(c1)OC(F)(F)O2 [Example 224] |
| +++ (NAUC>70% of positive control) | CCN(C(=O)Cn1nc(-c2cc(F)cc(C#N)c2)c2oc(C3CC3)cc2c1=O)c1ccc2c(c1)OC(F)(F)O2 [Example 225] |
| +++ (NAUC>70% of positive control) | CCN(C(=O)Cn1nc(-c2cc(C#N)cc(OC)c2)c2oc(C3CC3)cc2c1=O)c1ccc2c(c1)OC(F)(F)O2 [Example 226] |
| +++ (NAUC>70% of positive control) | CCN(C(=O)Cn1nc(-c2cc(Cl)cc(OC)c2)c2oc(C3CC3)cc2c1=O)c1ccc2c(c1)OC(F)(F)O2 [Example 227] |
| +++ (NAUC>70% of positive control) | CCN(C(=O)Cn1nc(-c2cc(F)cc(OC)c2)c2oc(C3CC3)cc2c1=O)c1ccc2c(c1)OC(F)(F)O2 [Example 228] |
| +++ (NAUC>70% of positive control) | CCN(C(=O)Cn1nc(-c2cccc(F)c2)c2oc(C3CC3)cc2c1=O)c1ccc2c(c1)OC(F)(F)O2 [Example 229] |
| +++ (NAUC>70% of positive control) | CCN(C(=O)Cn1nc(-c2cccc(Cl)c2)c2oc(C3CC3)cc2c1=O)c1ccc2c(c1)OC(F)(F)O2 [Example 230] |
| +++ (NAUC>70% of positive control) | CCN(C(=O)Cn1nc(-c2cccc(C#N)c2)c2oc(C3CC3)cc2c1=O)c1ccc2c(c1)OC(F)(F)O2 [Example 231] |
| ++ (NAUC 70-40% of positive control) | CCN(C(=O)Cn1nc(-c2cc(Cl)cc(Cl)c2)c2oc(C3CCC3)cc2c1=O)c1ccc2c(c1)OC(F)(F)O2 [Example 234] |
| ++ (NAUC 70-40% of positive control) | CCN(C(=O)Cn1nc(-c2cc(F)cc(F)c2)c2oc(C3CCC3)cc2c1=O)c1ccc2c(c1)OC(F)(F)O2 [Example 235] |
| +++ (NAUC>70% of positive control) | CCN(C(=O)Cn1nc(-c2cc(F)cc(Cl)c2)c2oc(C3CCC3)cc2c1=O)c1ccc2c(c1)OC(F)(F)O2 [Example 236] |
| ++ (NAUC 70-40% of positive control) | CCN(C(=O)Cn1nc(-c2cc(Cl)cc(C#N)c2)c2oc(C3CCC3)cc2c1=O)c1ccc2c(c1)OC(F)(F)O2 [Example 237] |
| ++ (NAUC 70-40% of positive control) | CCN(C(=O)Cn1nc(-c2cc(F)cc(C#N)c2)c2oc(C3CCC3)cc2c1=O)c1ccc2c(c1)OC(F)(F)O2 [Example 238] |
| + (NAUC<40% of positive control) | CCN(C(=O)Cn1nc(-c2cc(C#N)cc(OC)c2)c2oc(C3CCC3)cc2c1=O)c1ccc2c(c1)OC(F)(F)O2 [Example 239] |
| + (NAUC<40% of positive control) | CCN(C(=O)Cn1nc(-c2cc(Cl)cc(OC)c2)c2oc(C3CCC3)cc2c1=O)c1ccc2c(c1)OC(F)(F)O2 [Example 240] |
| +++ (NAUC>70% of positive control) | CCN(C(=O)Cn1nc(-c2cc(F)cc(OC)c2)c2oc(C3CCC3)cc2c1=O)c1ccc2c(c1)OC(F)(F)O2 [Example 241] |
